Test results taken from the supplement of paper PMC4954754.
± gives the uncertainty stated by the source.

Assays:
Conditions in all cases: 18 h
[1] = system: HEK293T-Rex ERSE-FLuc; test: EC50 for ERSE-FLuc reporter activation
Method: (§1)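 Dose-response of hit compounds in HEK293T-Rex cells stably expressing ERSE-FLuc or XBP1-RLuc reporters, 18 hr treatment, 1536-well; luminescence normalised to 500 nM thapsigargin (100%) and DMSO (0%), fitted to give EC50 (M) and maximal activation; '>' marks EC50 above the top tested dose (~17 µM).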

[2] = system: HEK293T-Rex XBP1-RLuc; test: EC50 for XBP1-RLuc reporter activation
Method: as §1

[3] = system: HEK293T-Rex ERSE-FLuc; test: maximal ERSE-FLuc activation from dose-response fit, relative to thapsigargin (% of thapsigargin); higher = stronger activation
Method: as §1

[4] = system: HEK293T-Rex XBP1-RLuc; test: maximal XBP1-RLuc activation from dose-response fit, relative to thapsigargin (% of thapsigargin); higher = stronger activation
Method: as §1

| SMILES | EC50 for ERSE-FLuc reporter activation [1] [µM] | EC50 for XBP1-RLuc reporter activation [2] [µM] | maximal ERSE-FLuc activation [3] | maximal XBP1-RLuc activation [4] |
| --- | --- | --- | --- | --- |
| COc1ccc(-c2cnnc(N/N=C/c3ccc(O)c(O)c3)n2)cc1 | 14.7 | 16.8 | 54.5 ± 13 | 50.5 ± 3.9 |
| CC(Oc1ccc(Cl)cc1Cl)C(=O)NNC(=O)c1ccc(O)c(O)c1 (configuration not stated) | > 14.9 | > 14.9 | 50 ± 8.3 | 45.2 ± 5.7 |
| Nc1c(C(=O)Nc2ccccc2)sc2nc3c(cc12)CCCCC3 | > 16.5 | > 16.5 | 29.8 ± 4.8 | 15.7 ± 1.2 |
| O=C(Nc1nc2c(s1)CCCC2)c1cccc2ccccc12 | > 18.2 | > 18.2 | 32.2 ± 1.6 | 6.96 ± 1.1 |
| CCOc1cccc(C(=O)Nc2ccc(Br)cn2)c1 | > 15.1 | > 15.1 | 23.3 ± 2.1 | 4.18 ± 0.09 |
| CCCCCOc1ccc(N/C(N)=N/c2nc(C)cc(C)n2)cc1 | 10.4 | 4.05 | 68 ± 8.8 | 152 ± 12 |
| CS(=O)(=O)c1ncc(Cl)c(C(=O)C(C#N)c2nc3ccccc3s2)n1 (configuration not stated) | 2.49 | 3.99 | 73.2 ± 8.2 | 266 ± 8.4 |
| Cc1cnc(NC(=O)c2sc3nc4c(C)cccc4cc3c2N)s1 | 11.5 | 6.88 | 58.9 ± 6.1 | 96.9 ± 3.6 |
| CCC(=O)N(Cc1cc2cc(C)ccc2n2nnnc12)C1CCCC1 | > 16.9 | > 16.9 | 20.1 ± 5.6 | 1.64 ± 4.2 |
| Nc1ccc2nc(/C=C/c3ccccc3)[nH]c2c1 | > 15.3 | > 15.3 | 34.4 ± 4.7 | 23.8 ± 1.7 |
| CN(C)/C=N/C1=C(C#N)C(c2ccc3c(c2)OCO3)c2ccc3ccccc3c2O1 (configuration not stated) | > 16.6 | > 16.6 | 21.8 ± 6.6 | 7.29 ± 3.2 |
| O=[N+]([O-])c1ccc(/C=C/c2ccc(O)cc2)cc1 | > 15.3 | 12.4 | 25.8 ± 4.6 | 53.3 ± 4.7 |
| COc1cccc(-c2cc(C(=O)Nc3cc(C)ccc3O)on2)c1 | 8.72 | > 16.9 | 87 ± 20 | 25.6 ± 5.2 |
| O=C1/C(=C/c2ccc(O)c(O)c2)Oc2cc(O)ccc21 | > 16.9 | > 16.9 | 46.2 ± 4.5 | 24.1 ± 2.3 |
| Cn1c(-c2cccc(Cl)c2)cnc1NC(=O)c1ccccc1 | > 16.9 | > 16.9 | 23.6 ± 2.5 | 8.33 ± 5.9 |
| O=C(/C=C/c1ccccc1)Nc1ccc(Cl)cn1 | > 18.6 | > 18.6 | 22.1 ± 7 | 2.19 ± 0.65 |
| CCOc1cc(/C=C2/NC(=O)N(Cc3ccc(F)cc3)C2=O)ccc1O | > 16.9 | 11.9 | 36.3 ± 4.1 | 56.8 ± 0.68 |

| SMILES | EC50 for ERSE-FLuc reporter activation [1] [µM] | EC50 for XBP1-RLuc reporter activation [2] [µM] | maximal ERSE-FLuc activation [3] | maximal XBP1-RLuc activation [4] |
| --- | --- | --- | --- | --- |
| Oc1ccc(-c2cnc3c(Nc4ccc5[nH]ccc5c4)nccn23)cc1 | > 16.9 | > 16.9 | 21.4 ± 3.8 | 37.8 ± 9.5 |
| O=[N+]([O-])c1ccc2nc(/C=C/c3ccccc3)[nH]c2c1 | > 16.9 | > 16.9 | 23.7 ± 12 | 3.13 ± 2.4 |
| Cc1ccc(O)c(NC(=O)c2cc(-c3cccnc3)on2)c1 | 10.8 | > 16.9 | 94.4 ± 10 | 27.9 ± 4.9 |
| CCCCCCc1ccc(-c2ncc(N)cn2)cc1 | 5.65 | > 16.9 | 76.7 ± 9.1 | 44.3 ± 1.5 |
| Cc1ccc(O)c(NC(=O)CSc2ccccc2)c1 | 3.9 | > 16.9 | 83.1 ± 25 | 21.2 ± 3.5 |
| CCOc1cccc(C(=O)Nc2ccc(-c3nc4ccc(C(=O)c5ccccc5)cc4[nH]3)cc2)c1 | > 11.5 | 2.33 | 25.2 ± 5 | 66.4 ± 12 |
| COc1ccc(-c2csc(-c3ccc(O)cc3)n2)cc1 | > 19.1 | > 19.1 | 30.9 ± 6.5 | 33.9 ± 1.9 |
| N#CC1=C(N)Oc2c(ccc3ccccc23)C1c1ccsc1 (configuration not stated) | > 18.3 | > 18.3 | 21.2 ± 5.6 | 5.3 ± 5 |
| Cc1ccc(-c2csc(Nc3ccc(O)cc3)n2)cc1 | > 16.9 | 8.04 | 40.9 ± 7.5 | 127 ± 1.4 |
| Nc1nc(Nc2ccc(Cl)cc2)nc2ccccc12 | 9.57 | 8.74 | 103 ± 24 | 56.4 ± 4.6 |
| COc1ccc(Nc2nccn3c(-c4ccsc4)cnc23)cn1 | > 16.9 | > 16.9 | 23.1 ± 0.89 | 8.52 ± 2.1 |
| COc1ccc(N(C(=O)c2ccccc2)S(=O)(=O)c2cc(OC)ccc2OC)cc1 | 6.69 | 5.82 | 125 ± 14 | 185 ± 8.3 |
| O=C(NC1CCCC1)c1cc(-c2cccs2)on1 | 13.4 | > 16.9 | 57.6 ± 6.2 | 11.9 ± 3.2 |
| Cn1cccc1/C=C1/SC(=Nc2ccccc2)NC1=O | > 16.7 | > 16.7 | 40.8 ± 2.8 | 18.6 ± 6.5 |
| N#CC1=C(N)Oc2c(ccc3ccccc23)C1c1ccccc1 (configuration not stated) | > 16.9 | > 16.9 | 15.5 ± 0.4 | 7.34 ± 1.6 |
| Cc1nc(-c2coc3c(O)c(O)ccc3c2=O)cs1 | > 16.9 | > 16.9 | 35.2 ± 6.9 | 20.6 ± 1 |
